{"source": "patent US8999374B2", "about": "“Method of inhibiting salmonella in livestock and poultry” (priority 2002, dated 2015)", "tested_on": "Salmonella enteritidis KTE-61 strain", "test": "Inhibition test of salmonella/yeast agglutination", "assay_type": "cell-based", "method": "Inhibition tests of salmonella agglutination were carried out on various saccharides as follows. […] Preliminary test was carried out for observing by stereoscopic microscope (OLYMPUS Co., Ltd) that agglutination occurs in this liquid mixture.\nNext, in a similar manner to the aforementioned preliminary test, with the use of aqueous solution of saccharide where the aforementioned taken β-1,4-mannobiose and a mannose reagent (D-Mannose; Wako Pure Chemical Industries, Ltd.) were used instead of distilled water, the minimum concentration for inhibiting agglutination of liquid mixture (the minimum concentration for inhibiting agglutination) was obtained by varying the concentration, respectively. The actual minimum concentration for inhibiting the agglutination in liquid mixture and the relative concentration (ratio of concentration) when the minimum concentration for inhibiting agglutination of mannose is set 1 are shown in table 1.", "data": [{"compound": "OC[C@H]1O[C@@H](O[C@H]2[C@H](O)[C@H](O)C(O)O[C@@H]2CO)[C@@H](O)[C@@H](O)[C@@H]1O", "note": "(stereo partly drawn) [Mannobiose, β-1,4-mannobiose]", "values": [{"measurement": "minimum concentration for inhibiting agglutination, Actual Concentration", "setting": "Salmonella enteritidis KTE-61 with yeast Candida albicans KI-102001, concentration in liquid mixture", "result": 1290, "unit": "µg/mL"}, {"measurement": "Relative Concentration (Based on Mannose)", "setting": "minimum concentration for inhibiting agglutination, mannose set to 1", "result": 2.173}]}]}
